In EP0049683A2, “Imidazo-rifamycines, process for their preparation, pharmaceutical preparations containing them and their use” (CIBA-GEIGY AG, priority 1980, dated 1982):
Converted amounts (≈) assume the structure as drawn.

Columns and labels:
Assay type in all cases: cell-based
Escherichia coli 2018 = assay: Agar dilution MIC in DST agar (Ericsson and Sherris); settings: for MIC: Escherichia coli, 2018, in vitro, read-out: MIC Esch. 2018; for MIC Esch. 2018: in vitro
How it was run: (§1)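 In vitro antibiotic activity was measured by serial dilution of test compounds in agar. The MIC is the lowest concentration at which growth of the test organism is still inhibited, expressed in µg/ml.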

Escherichia coli 205 = assay: as above; settings: for MIC: Escherichia coli, 205, in vitro, read-out: MIC Esch. 205; for MIC Esch. 205: in vitro
How it was run: as §1

Proteus morganii 1518 = assay: as above; settings: for MIC: Morganella morganii, 1518, in vitro, read-out: MIC Prot. 1518; for MIC Prot. 1518: in vitro
How it was run: as §1

Proteus morganii 2359 = assay: as above; settings: for MIC: Morganella morganii, 2359, in vitro, read-out: MIC Prot. 2359; for MIC Prot. 2359: in vitro
How it was run: as §1

[1] = test system: Pseudomonas aeruginosa K 799/61; assay: as above; settings: for MIC: Pseudomonas aeruginosa, K799/61, read-out: MIC Pseu. 799; for MIC Pseu. 799: in vitro, agar dilution, DST agar
How it was run: as §1

[2] = test system: Salmonella Typhimurium 277; assay: as above; settings: in vitro; for MIC: Salmonella enterica, TYPHIMURIUM, read-out: MIC Salm. 277
How it was run: as §1

[3] = test system: Staphylococcus aureus 10B; assay: as above; settings: in vitro; for MIC: Staphylococcus aureus, 10B, read-out: MIC Staph. 10B
How it was run: as §1

[4] = test system: Staphylococcus aureus 2999; assay: as above; settings: for MIC: Staphylococcus aureus, 2999, in vitro, read-out: MIC Staph. 2999; for MIC Staph. 2999: in vitro
How it was run: as §1

[5] = test system: Mycobacterium tuberculosis; assay: as above; settings: in vitro; for MIC: Mycobacterium tuberculosis, read-out: MIC Myc. tub.
Staphylococcus aureus = assay: In vitro antibacterial activity against gram-positive cocci; settings: at (at or below) the lowest limit of the tested concentration range, 0,005 y/ml
From the text: (§2) Die neuen erfindungsgemässen Verbindungen der Formel I zeichnen sich vor allem durch ihre wertvollen pharmakologischen Eigenschaften aus: so besitzen sie gemäss den Resultaten in vitro antibiotische, insbesondere antibakterielle Eigenschaften, wie z.B. einerseits gegen grammpositive Kokken, wie Staphylococcus aureus, (im getesteten Konzentrationsbereich 0,005 bis 128 y/ml),andererseits gegen grammnegative Stäbchenbakterien, wie Enterobacteriaceae, z.B. Escherichia coli, Pseudomonas aeruginosa und Proteus morganii (im getesteten Konzentrationsbereich von 1 bis 64 y/ml), sowie gegen Mycobacterium tuberculosis (im getesteten Konzentrationsbereich von 0,48 bis 1,9 y/ml). […] (Für die Testresultate siehe auch Tabelle -1.)
(§3) Auch die neuen erfindungsgemässen Verbindungen der Formeln V und VI zeichnen sich durch analoge wertvolle pharmakologische Eigenschaften aus, d.h. sie besitzen gemäss den Resultaten in vitro antibiotische, insbesondere antibakterielle Eigenschaften, die sich bezüglich des Anwendungsbereichs sowie der getesteten effektiven Konzentrationen den Verbindungen der Formel I praktisch gleichen. […] (Für die Testresultate siehe auch Tabelle 2.)

[6] = test system: Enterobacteriaceae, z.B. Escherichia coli, Pseudomonas aeruginosa und Proteus morganii; assay: In vitro antibacterial activity against gram-negative rods; settings: within the stated concentration range, 1 bis 64 y/ml
From the text: as §2, §3

Compound | MIC (Escherichia coli 2018) [µg/mL] | MIC (Escherichia coli 205) [µg/mL] | MIC (Proteus morganii 1518) [µg/mL] | MIC (Proteus morganii 2359) [µg/mL] | MIC [1] [µg/mL] | MIC [2] [µg/mL] | MIC [3] [µg/mL] | MIC [4] [µg/mL] | MIC [5] [µg/mL] | Hemmwirkung auf Staphylococcus aureus (Staphylococcus aureus) | Hemmung der Enterobacterien [6] | MIC Esch. 2018 (Escherichia coli 2018) [µg/mL] | MIC Esch. 205 (Escherichia coli 205) [µg/mL] | MIC Prot. 1518 (Proteus morganii 1518) [µg/mL] | MIC Prot. 2359 (Proteus morganii 2359) [µg/mL] | MIC Pseu. 799 [1] [µg/mL] | MIC Salm. 277 [2] [µg/mL] | MIC Staph. 10B [3] [µg/mL] | MIC Staph. 2999 [4] [µg/mL] | MIC Myc. tub. [5] [µg/mL]
CCN(CC)CCN(CC)c1nc2c([nH]1)c1c(O)c3c(O)c(C)c4c(c32)C(=O)[C@@](C)(O/C=C/[C@H](OC)[C@@H](C)[C@@H](OC(C)=O)[C@H](C)[C@H](O)[C@H](C)[C@@H](O)[C@@H](C)/C=C/C=C(/C)C(=O)N1)O4 [Verbindung 18, 4-[N-Ethyl-N-(2-diethylaminoethyl)-amino]-imidazolo-[4,5-c]rifamycin SV] | 4 (≈ 4.63 µM) | 2 (≈ 2.31 µM) | 4 (≈ 4.63 µM) | 2 (≈ 2.31 µM) | 8 (≈ 9.26 µM) | 16 (≈ 18.5 µM) | 0.005 (≈ 0.00579 µM) | 0.005 (≈ 0.00579 µM) | 0.48 (≈ 0.556 µM) |  |  |  |  |  |  |  |  |  |  | 
3-Thiomorpholinylmethylenamino-Rifamycin S [Verbindung 87] |  |  |  |  |  |  |  |  |  | deutliche Hemmwirkung | wirksam hemmen |  |  |  |  |  |  |  |  | 
3-(4-Methylpiperazinyl)-methylenamino-Rifamycin S [Verbindung 88] |  |  |  |  |  |  |  |  |  | deutliche Hemmwirkung | wirksam hemmen |  |  |  |  |  |  |  |  | 
4-(1-Perhydroazocinyl)-imidazolo[4,5-c]rifamycin SV [Verbindung 28] |  |  |  |  |  |  |  |  |  |  |  | 4 | 4 | 2 | 2 | 8 | 16 | 0.005 | 0.005 | 0.97
4-[8-Aza-1,4-dioxaspiro-(4,5)-8-decyl]-imidazolo[4,5-c]-rifamycin SV [Verbindung 25] |  |  |  |  |  |  |  |  |  |  |  | 16 | 8 | 8 | 8 | 16 | 16 | 0.005 | 0.005 | 0.97
CO[C@H]1/C=C/O[C@@]2(C)Oc3c(C)c(O)c4c(O)c(c5nc(N6CCN(Cc7ccccc7)CC6)[nH]c5c4c3C2=O)NC(=O)/C(C)=C\C=C\[C@H](C)[C@H](O)[C@@H](C)[C@@H](O)[C@@H](C)[C@H](OC(C)=O)[C@@H]1C [Verbindung 57, 4-(4-Benzylpiperazinyl)-imidazolo[4,5-c]rifamycin SV] | 4 (≈ 4.46 µM) | 8 (≈ 8.93 µM) | 4 (≈ 4.46 µM) | 4 (≈ 4.46 µM) | 16 (≈ 17.9 µM) | 16 (≈ 17.9 µM) | 0.005 (≈ 0.00558 µM) | 0.005 (≈ 0.00558 µM) | 0.97 (≈ 1.08 µM) |  |  |  |  |  |  |  |  |  |  | 
CO[C@H]1/C=C/O[C@@]2(C)Oc3c(C)c(O)c4c(O)c(c5[nH]c(N(C)CCN(C)C)nc5c4c3C2=O)NC(=O)/C(C)=C\C=C\[C@H](C)[C@H](O)[C@@H](C)[C@@H](O)[C@@H](C)[C@H](OC(C)=O)[C@@H]1C [Verbindung 17, 4-[N-Methyl-N-(2-dimethylaminoethyl)-amino]-imidazolo-[4,5-c]rifamycin SV] | 64 (≈ 77.9 µM) | 32 (≈ 38.9 µM) | 64 (≈ 77.9 µM) | 32 (≈ 38.9 µM) | 64 (≈ 77.9 µM) | 64 (≈ 77.9 µM) | 0.005 (≈ 0.00608 µM) | 0.005 (≈ 0.00608 µM) |  |  |  |  |  |  |  |  |  |  |  | 
CCCN(CC1CC1)c1nc2c3c(O)c4c(O)c(C)c5c(c4c2[nH]1)C(=O)C(C)(OC=CC(OC)C(C)C(OC(C)=O)C(C)C(O)C(C)C(O)C(C)C=CC=C(C)C(=O)N3)O5 (centres unmarked) [Verbindung 11, 4-(N-Cyclopropylmethyl-N-propylamino)-imidazolo[4,5-c]rifamycin SV] | 8 (≈ 9.6 µM) | 8 (≈ 9.6 µM) | 2 (≈ 2.4 µM) | 8 (≈ 9.6 µM) | 8 (≈ 9.6 µM) | 32 (≈ 38.4 µM) | 0.01 (≈ 0.012 µM) | 0.01 (≈ 0.012 µM) |  |  |  |  |  |  |  |  |  |  |  | 
